# From patent US5141627A, “Chelators whose affinity for calcium ion is increased by illumination” (The Regents of the University of California, priority 1989, dated 1992)
# Several values for one entry are separate records, joined by “and”; a condition that tells them apart may be missing. Equal entries are not always repeated. Where two headings read alike, the source gives them in different places.
# How the values were obtained:
# [1] = Ca2+ binding kinetics of photolyzed diazo-2 by competition with HEEDTA after flash photolysis
# Source text: Having determined the rate at which the high-affinity chelator was photochemically generated from diazo-2, the kinetics of Ca^2+ binding by the photolysis of diazo-2 was examined relying on the 1:1 competition between protons and Ca^2+ for the chelator HEEDTA, i.e.:
# If diazo-2 is photolyzed in the presence of HEEDTA partially saturated with Ca^2+, the photo-generated Compound 3c would take some Ca^2+ away from HEEDTA. The newly freed HEEDTA would then take up some protons and lead to an alkalinization of the sample. The shift in Ca^2+ -binding equilibrium is thus visualized with an indicator like cresol red. Control experiments indicate that at HEEDTA buffer concentrations ≥2 mM, the intrinsic kinetics of the Ca^2+ -HEEDTA equilibrium was no longer limiting the speed of the final alkalinization.
# It is noted that the solution first acidified owing to the formation and dissociation of the product carboxylic acid, but subsequently began realkalinizing as the newly formed product chelator competed with HEEDTA for Ca^2+. The time constant of the realkalinization was 2.8 ms (Table I). […]
# FIG. 2B is a flash photolysis record of the kinetics of Ca^2+ uptake by photolyzed diazo-2. […] Monitoring the light transmission at 572 nm was performed as for A. Each small division of the ordinate corresponds to 3.4×10^-4 absorbance unit. […] As the photolyzed diazo-20 took Ca^2+ away from HEEDTA, the freed HEEDTA bound protons and thus alkalinized the solution, a process reflected by the increase in cresol red absorbance (i.e., decline in light transmission at 572 nm).
# Kinetics of the conversion of diazo-2 and diazo-3 to the carboxylic acid products and the kinetics of Ca^2+ binding by photolyzed diazo-2 were measured by flash photolysis and pH monitoring. […]
# [2] = Ca2+ affinity by UV spectra during titration of EGTA or HEEDTA buffers; format: binding; details: after photolysis; Hill plot / equilibrium measurements; read-out: Kd (Ca2+) / affinity after photolysis
# Method: The titration was done at 22° C. with 10 mL of 100 mM KCl, 10 mM K-MOPS, 10 mM K2 H.HEEDTA, and 14 […] diazo-2 as starting materials, adjusting the pH to 7.24, recording the spectrum, and then discarding 1.0 mL of this solution and replacing with 1.0 mL of 100 mM KCl, 10 mM K.MOPS, 10 mM KCa.HEEDTA, 14 μM diazo-2, readjusting the pH to 7.24, and recording the spectra, which was then in 9 mM K2H.HEEDTA. Subsequent iterations to reach n mM KCa.HEEDTA, (10-n) mM HEEDTA, n=2-10, were done by discarding 10.0/(11-n) mL and replacing with equal volumes of the 10mM KCa.HEEDTA, 14 μM diazo-2 stock. After n=10 had been reached to give free Ca^2+ between 10^-5 and 10^-4 M, addition of 1 mM CaCl2 had no further effect on the spectrum. For clarity only six spectra are including in the figure, n=0, 2, 4, 6, 8, and 10. Each spectrum is labeled with the calculated free [Ca^2+ ] imposed by the HEEDTA buffer, assuming a log effective stability constant of 5.55 at pH 7.24.
# The phenylacetate was produced by irradiating a 30 μM solution of diazo-2 in 100 mM KCl, 10 mM Tris.HCl, 10 mM K2 H.HEEDTA, pH 8.40, with Spectroline lamp at 365 nm to completion. The titration was then performed as in A but the pH was maintained at 8.40, at which the calculated log effective stability is constant for HEEDTA was 6.60.
# Ca^2+ -binding constants for chelators before and after photolysis were determined by monitoring UV spectra during titration of EGTA or HEEDTA buffers to varying free Ca^2+ levels.
# Either the ratio of, for example, [Ca.EGTA] to free [EGTA] was adjusted at a constant pH, or the pH was varied while [Ca.EGTA]=[EGTA]. These two approaches gave equivalent answers for pH>7 whenever directly tested, because of the pH insensitivity of BAPTA-like ligands (see FIG. 1 legend for more details). The apparent dissociation constants of Ca.EGTA and Ca.HEEDTA were calculated as described by R. Y. Tsien (1980); see also R. Y. Tsien, et al. (1986), S. R. Adams, et al. (1980), Grynkiewicz, et al., (1985), and Jackson, et al. (1987).
# [3] = acid-base indicator; cited from earlier work
# [4] = Mg.EGTA incl. monoprotonated form, pH 7.60, 0.1M ionic strength; assumed; read-out: apparent dissociation constant for Mg complex; cited from earlier work
# [5] = cited from earlier work
# cells = details: photolyzed in cells; cited from earlier work
structure (smiles),measurement,setting,value
Cc1ccc(N(CC(=O)O)CC(=O)O)c(OCCOc2cc(CC(=O)O)ccc2N(CC(=O)O)CC(=O)O)c1 [Compound 3c],time constant of realkalinization,"[1]; 70 μM diazo-2, 2 mM HEEDTA half-saturated with Ca2+, free [Ca2+] 377 nM",2.8 ms
same,"koff, unimolecular rate constant for dissociation of Ca2+ complex",[1]; photolyzed diazo-2,58 s⁻¹
same,"kon, bimolecular rate constant for binding of Ca2+",[1]; photolyzed diazo-2,8e+08 M⁻¹ s⁻¹
same,Kd,[2],~0.073 µM and 0.073 µM
Cc1cc(C2(c3ccc(O)c(C)c3)OS(=O)(=O)c3ccccc32)ccc1O [Cresol red],pKa,[3],8.2
"O=C(O)CN(CCOCCOCCN(CC(=O)O)CC(=O)O)CC(=O)O [EGTA, ethylenebis(oxyethylenenitrilo)tetraacetic acid]",Kd,[4],6000 µM
Cc1ccc(N(CC(=O)O)CC(=O)O)c(OCCOc2cc(-c3c4cc(Cl)c(=O)cc-4oc4cc(O)c(Cl)cc34)ccc2N(CC(=O)O)CC(=O)O)c1 [Fluo-3],enhancement of fluorescence quantum yield by Ca2+ binding,[5]; Ca2+ binding,about 40 fold
same,Kd,[5]; read-out: Kd (Ca2+) of fluorescent indicator,0.4 µM
Cc1ccc(N(CC(=O)O)CC(=O)O)c(OCCOc2cc(C(O)c3cc4c(cc3[N+](=O)[O-])OCO4)ccc2N(CC(=O)O)CC(=O)O)c1 (stereo not drawn) [nitr-5],irradiation damage on photolysis in cells (in words),cells,without noticeable irradiation damage
